The nature of this data set: physchem. The following applies: ethanol-water.
For the compound `O=C(O)c1ccc(S)cc1` [para-carboxyphenyl mercaptan], the pKa was 5.9.

Turning to `CC(=O)c1ccc(S)cc1` [para-acetyl phenyl mercaptan], the pKa was 5.9.

As for `Sc1cccc(Br)c1` [meta-bromophenyl mercaptan], the pKa stood at 6.8.

Compound `O=[N+]([O-])c1cccc(S)c1` [meta-nitrophenyl mercaptan] returned a pKa of 5.9.

Consider `O=C(S)c1ccccc1` [thiobenzoic acid], for which the pKa stood at 6.3.

`Sc1c(Cl)c(Cl)c(Cl)c(Cl)c1Cl` [pentachlorophenyl mercaptan] yielded a pKa of 3.5.

Consider `Sc1cccc(Cl)c1` [meta-chlorophenyl mercaptan], for which the pKa is 6.7.

With `Sc1ccc(Cl)cc1` [para-chlorophenyl mercaptan], the pKa is 7.

As for `N#Cc1cccc(S)c1` [meta-cyanophenyl mercaptan], the pKa amounted to 6.3.

As to `Sc1ccc(Cl)c(Cl)c1` [3,4-dichlorophenyl mercaptan], the pKa was determined as 6.2.

Turning to `CC(=O)c1cccc(S)c1` [meta-acetyl phenyl mercaptan], the pKa was 6.9.

The compound `Fc1ccc(S)cc1` [para-fluorophenyl mercaptan] gave a pKa of 7.5.

In turn, `O=[N+]([O-])c1ccc(S)c([N+](=O)[O-])c1` [2,4-dinitrophenyl mercaptan] displayed a pKa of 4.

In turn, `O=S(=O)(O)c1ccc(S)cc1` [para-mercaptobenzenesulfonic acid] showed a pKa of 5.7.

In the case of `O=S(=O)(O)c1cccc(S)c1` [meta-mercaptobenzenesulfonic acid], the pKa turned out to be 5.9.

For `Fc1c(F)c(F)c(S)c(F)c1F` [pentafluorophenyl mercaptan], the pKa was found to be 2.7.

The compound `Sc1cc(Cl)cc(Cl)c1` [3,5-dichlorophenyl mercaptan] showed a pKa of 5.8.

For the compound `N#Cc1ccc(S)cc1` [para-cyanophenyl mercaptan], the pKa was 6.

Take `Sc1ccc(I)cc1` [para-iodophenyl mercaptan]: the pKa was 6.9.

The compound `Sc1ccc(Br)cc1` [para-bromophenyl mercaptan] returned a pKa of 7.

With `Fc1cccc(S)c1` [meta-fluorophenyl mercaptan], the pKa was 6.8.

On to `Sc1cc(Cl)c(Cl)cc1Cl` [2,4,5-trichlorophenyl mercaptan], for which the pKa stood at 4.2.

Consider `FC(F)(F)c1cc(S)ccc1Cl` [3-trifluoromethyl-4-chlorophenyl mercaptan], for which the pKa came to 6.2.

Take `CS(=O)(=O)c1ccc(S)cc1` [para-methylsulfonylphenyl mercaptan]: the pKa came out at 5.6.

As for `O=C(O)c1ccccc1S` [orthocarboxyphenyl mercaptan], the pKa amounted to 5.6.

In turn, `Sc1cccc(I)c1` [meta-iodophenyl mercaptan] had a pKa of 6.8.

As for `FC(F)(F)c1ccc(Cl)c(S)c1` [2-chloro-5-trifluoromethylphenyl mercaptan], the pKa worked out at 6.

In the case of `CS(=O)(=O)c1cccc(S)c1` [meta-methylsulfonylphenyl mercaptan], the pKa worked out at 5.9.

As a reminder, the pKa is the pH at which an ionisable group is half protonated. Low readings indicate a group that gives up its proton readily, high ones a group that holds its proton tightly.

The values above are taken from patent publication US4154967A, “Process for preparation of phenols” (Mitsui Petrochemical Industries, Ltd., priority 1976, dated 1979).
